Tests used:
Format in all cases: functional
Conditions in all cases: read-out: ED50 (the source's name)
[1] = Cytotoxicity against human […] cells by tetrazolium salt-based colorimetric assay
[2] = system: KB; assay: Cytotoxicity against human KB cells by tetrazolium salt-based colorimetric assay
[3] = system: TE-671; assay: Cytotoxicity against human TE671 cells by tetrazolium salt-based colorimetric assay
[4] = system: A549; assay: Cytotoxicity against human A549 cells by tetrazolium salt-based colorimetric assay
[5] = system: HCT-8; assay: Cytotoxicity against human HCT8 cells by tetrazolium salt-based colorimetric assay

| Structure (SMILES) | EC50 [1] [µg/mL] | EC50 [2] [µg/mL] | EC50 [3] [µg/mL] | EC50 [4] [µg/mL] | EC50 [5] [µg/mL] |
| --- | --- | --- | --- | --- | --- |
| O=C(O)C[C@@H]1C(=O)O[C@H]2[C@@H]3OC(=O)c4cc(O)c(O)c(O)c4-c4c(cc(O)c(O)c4O)C(=O)OC[C@H]2O[C@@H](OC(=O)c2cc(O)c(O)c(O)c2)[C@@H]3OC(=O)c2cc(O)c(O)c3c2[C@H]1[C@H](O)C(=O)O3 [CHEBULAGIC ACID] | 0.8 | > 10 | > 10 | > 10 | > 10 |
| O=C(O)C[C@H]1C(=O)O[C@H]2[C@H](OC(=O)c3cc(O)c(O)c(O)c3)[C@@H](OC(=O)c3cc(O)c(O)c4c3[C@H]1[C@H](O)C(=O)O4)[C@H](OC(=O)c1cc(O)c(O)c(O)c1)O[C@@H]2COC(=O)c1cc(O)c(O)c(O)c1 [CHEBULINIC ACID] | > 10 | > 10 | > 10 | > 10 | > 10 |
| Oc1cc(O)c2c(c1)O[C@H](c1ccc(O)c(O)c1)[C@@H](O)C2 [CIANIDANOL] | > 10 | > 10 | > 10 | > 10 | > 10 |
| Oc1cc(O)c2c(c1)O[C@@]1(c3ccc(O)c(O)c3)Oc3cc(O)c4c(c3[C@@H]2[C@H]1O)O[C@H](c1ccc(O)c(O)c1)[C@H](O)[C@H]4c1c(O)cc(O)c2c1O[C@H](c1ccc(O)c(O)c1)[C@H](O)C2 [CINNAMTANNIN B1] | 3.57 | > 10 | > 10 | > 10 | > 10 |
| Oc1cc(O)c2c(c1)O[C@H](c1ccc(O)c(O)c1)[C@H](O)[C@H]2c1c(O)cc(O)c2c1O[C@@]1(c3ccc(O)c(O)c3)Oc3cc(O)c4c(c3[C@@H]2[C@H]1O)O[C@H](c1ccc(O)c(O)c1)[C@H](O)[C@H]4c1c(O)cc(O)c2c1O[C@H](c1ccc(O)c(O)c1)[C@H](O)C2 [CINNAMTANNIN B2] | 0.66 | > 10 | > 10 | > 10 | > 10 |
| O=C(O[C@@H]1O[C@@H]2COC(=O)c3cc(O)c(O)c(O)c3-c3c(cc(O)c(O)c3O)C(=O)O[C@H]([C@H]1O)[C@@H]2O)c1cc(O)c(O)c(O)c1 [CORILAGIN] | > 10 | > 10 | > 10 | > 10 | > 10 |
| O=C(O[C@@H]1O[C@@H]2COC(=O)c3cc(O)c(O)c(O)c3-c3c(cc(O)c(O)c3O)C(=O)O[C@@H]3[C@H]1OC(=O)c1cc(O)c(O)c4c1C1C(O)(O4)[C@]4(O)C[C@@]5(C(=O)O[C@H]6C(O)CO[C@@]65O)[C@]1(CC4=O)C(=O)O[C@@H]32)c1cc(O)c(O)c(O)c1 (stereo not given in full) [ELAEOCARPUSIN] | 2.62 | > 10 | > 10 | > 10 | > 10 |
| O=C(O[C@@H]1Cc2c(O)cc(O)cc2O[C@@H]1c1ccc(O)c(O)c1)c1cc(O)c(O)c(O)c1 [EPICATECHIN GALLATE] | 0.55 | > 10 | > 10 | > 10 | > 10 |
| O=C(O[C@@H]1O[C@@H]2COC(=O)c3cc(O)c(O)c(O)c3-c3c(cc(O)c(O)c3O)C(=O)O[C@H]2[C@H](OC(=O)c2cc(O)c(O)c(O)c2)[C@H]1OC(=O)c1cc(O)c(O)c(O)c1)c1cc(O)c(O)c(O)c1 [EUGENIIN] | 2.74 | > 10 | > 10 | > 10 | > 10 |
| O=C1O[C@H]2[C@H](O)[C@@H](OC(=O)c3cc(O)c(O)c4c3[C@@H]3C1=CC(=O)C(O)(O)C3(O)O4)[C@H](OC(=O)c1cc(O)c(O)c(O)c1)O[C@@H]2CO (stereo not given in full) [FUROSIN] | 0.67 | > 10 | > 10 | > 10 | > 10 |
| O=C1O[C@H]2[C@@H]3OC(=O)c4cc(O)c(O)c(O)c4-c4c(cc(O)c(O)c4O)C(=O)OC[C@H]2O[C@@H](OC(=O)c2cc(O)c(O)c(O)c2)[C@@H]3OC(=O)c2cc(O)c(O)c3c2[C@@H]2C1=CC(=O)[C@](O)(O3)C2(O)O [GERANIIN] | 0.35 | > 10 | > 10 | > 10 | > 10 |
| O=C1OC[C@H]2OC(=O)c3cc(O)c(O)c(O)c3-c3c(O)c(O)c(O)c4c3C(=O)O[C@H]([C@H]3OC(=O)c5c-4c(O)c(O)c(O)c5[C@@H]3C3(O)OC[C@H](O)[C@@H](O)[C@H]3O)[C@@H]2OC(=O)c2cc(O)c(O)c(O)c2-c2c1cc(O)c(O)c2O (stereo not given in full) [GRANDININ] | 0.1 | > 10 | > 10 | > 10 | > 10 |
| O=C(OC[C@H]1OC(O)[C@@](O)(COC(=O)c2cc(O)c(O)c(O)c2)[C@@H]1O)c1cc(O)c(O)c(O)c1 (stereo not given in full) [HAMAMELITANNIN] | > 10 | > 10 | > 10 | > 10 | > 10 |
| O=C(O[C@@H]1O[C@@H]2COC(=O)c3cc(O)c(O)c(O)c3-c3c(cc(Oc4c(C(=O)O)cc(O)c(O)c4O)c(O)c3O)C(=O)O[C@H]([C@H]1O)[C@@H]2O)c1cc(O)c(O)c(O)c1 [MALLOTINIC ACID] | > 10 | > 10 | > 10 | > 10 | > 10 |
| O=C1O[C@H]2[C@@H]3OC(=O)c4cc(Oc5c(C(=O)O)cc(O)c(O)c5O)c(O)c(O)c4-c4c(cc(O)c(O)c4O)C(=O)OC[C@H]2O[C@@H](OC(=O)c2cc(O)c(O)c(O)c2)[C@@H]3OC(=O)c2cc(O)c(O)c3c2[C@@H]2C1=CC(=O)[C@](O)(O3)C2(O)O [MALLOTUSINIC ACID] | > 10 | > 10 | > 10 | > 10 | > 10 |
| O=C1OC[C@H]2OC(=O)c3cc(O)c(O)c(O)c3-c3c(O)c(O)c(O)c4c3C(=O)O[C@H]([C@H]3OC(=O)C5C4=C(O)C(=O)C54Oc5cc(O)c6c(c5[C@H]34)O[C@H](c3ccc(O)c(O)c3)[C@@H](O)C6)[C@@H]2OC(=O)c2cc(O)c(O)c(O)c2-c2c1cc(O)c(O)c2O [MONGOLICAIN A] | > 10 | > 10 | > 10 | > 10 | > 10 |
| O=C1OC[C@H]2OC(O)[C@@H]3OC(=O)c4cc(O)c(O)c(O)c4-c4c(cc(O)c(O)c4O)C(=O)O[C@H]3[C@@H]2OC(=O)c2cc(O)c(O)c(O)c2-c2c1cc(O)c(O)c2O (stereo not given in full) [PEDUNCULAGIN] | 2.74 | > 10 | > 10 | > 10 | > 10 |
| O=C(OC[C@H]1O[C@@H](OC(=O)c2cc(O)c(O)c(O)c2)[C@H](OC(=O)c2cc(O)c(O)c(O)c2)[C@@H](OC(=O)c2cc(O)c(O)c(O)c2)[C@@H]1OC(=O)c1cc(O)c(O)c(O)c1)c1cc(O)c(O)c(O)c1 [PENTAGALLOYL GLUCOSE] | 5.01 | > 10 | > 10 | > 10 | > 10 |
| Oc1cc(O)c2c(c1)O[C@@]1(c3ccc(O)c(O)c3)Oc3cc(O)c4c(c3[C@@H]2[C@H]1O)O[C@H](c1ccc(O)c(O)c1)[C@H](O)C4 [PROANTHOCYANIDIN A2] | 5.5 | > 10 | > 10 | > 10 | > 10 |
| Oc1cc(O)c2c(c1)O[C@H](c1ccc(O)c(O)c1)[C@H](O)[C@H]2c1c(O)cc(O)c2c1O[C@H](c1ccc(O)c(O)c1)[C@H](O)C2 [PROCYANIDIN B2] | > 10 | > 10 | > 10 | > 10 | > 10 |
| Oc1cc(O)c2c(c1)O[C@H](c1ccc(O)c(O)c1)[C@H](O)[C@H]2c1c(O)cc(O)c2c1O[C@H](c1ccc(O)c(O)c1)[C@H](O)[C@H]2c1c(O)cc(O)c2c1O[C@H](c1ccc(O)c(O)c1)[C@H](O)C2 [PROCYANIDIN C1] | > 10 | > 10 | > 10 | > 10 | > 10 |
| O=C1O[C@H]([C@@H]2OC(=O)c3cc(O)c(O)c(O)c3-c3c(O)c(O)c4oc(=O)c5c(c(O)c(O)c6oc(=O)c3c4c65)-c3c(cc(O)c(O)c3O)C(=O)OC[C@H]2O)[C@@H]2OC(=O)c3c(c(O)c(O)c(O)c3[C@H]2O)-c2c1cc(O)c(O)c2O [PUNICACORTEIN C] | 3.86 | > 10 | > 10 | > 10 | > 10 |
| O=C(O[C@@H]1O[C@@H]2COC(=O)c3cc(O)c(O)c(O)c3-c3c(cc(O)c(O)c3O)C(=O)O[C@H]([C@H]1OC(=O)c1cc(O)c(O)c(O)c1)[C@@H]2OC(=O)c1cc(O)c(O)c(O)c1)c1cc(O)c(O)c(O)c1 [PUNICAFOLIN] | > 10 | > 10 | > 10 | > 10 | > 10 |
| O=C1O[C@@H]2[C@@H](OC(=O)c3cc(O)c(O)c(O)c3-c3c1cc(O)c(O)c3O)[C@H](O)O[C@@H]1COC(=O)c3cc(O)c(O)c(O)c3-c3c(O)c(O)c4oc(=O)c5c(c(O)c(O)c6oc(=O)c3c4c65)-c3c(cc(O)c(O)c3O)C(=O)O[C@@H]21 [PUNICALAGIN] | > 10 | > 10 | > 10 | > 10 | > 10 |
| O=C1OC[C@H]2O[C@@H](O)[C@H](O)[C@@H](O)[C@@H]2OC(=O)c2cc(O)c(O)c(O)c2-c2c(O)c(O)c3oc(=O)c4c(c(O)c(O)c5oc(=O)c2c3c54)-c2c1cc(O)c(O)c2O [PUNICALIN] | > 10 | > 10 | > 10 | > 10 | > 10 |
| O=C(O[C@@H]1O[C@@H]2COC(=O)c3cc(O)c(O)c(O)c3-c3c(cc(O)c(O)c3O)C(=O)O[C@H]2[C@H](O)[C@H]1O)c1cc(O)c(O)c(O)c1 [STRICTININ] | 4.86 | > 10 | > 10 | > 10 | > 10 |
